Assay results reported in patent US8648038B2, “(2-aryloxyacetylamino)phenylpropionic acid derivatives, processes for preparation thereof and use thereof as medicaments” (Sanofi, priority 2010, dated 2014).

What follows are compounds tested against T1, GPR40 (Rattus norvegicus, UniProt Q8K3T4) (assay: In vitro FLIPR assay with recombinant HEK293 cells which express the GPCR GPR40 (intracellular Ca2+)). Settings: recombinant HEK293 cells expressing GPR40; Fluo-4 Ca2+ signal; 100% = 10 μM linoleic acid.
T1 construct: expressed in transfected cells; host or cells: HEK293
Type: cell-based
Description: In Vitro FLIPR Assay with Recombinant Cells which Express the GPCR GPR40
Function-testing assays were performed by means of the FLIPR technique (“Fluorescence Imaging Plate Reader”, Molecular Devices Corp.). For this purpose, agonist-induced changes were determined in the intracellular concentration of Ca^2+ in recombinant HEK293 cells which expressed the GPCR GPR40.
For the studies, cells were sown into 96-well microtiter plates (60 000 cells/well) and left to grow overnight. The medium was removed and the cells were incubated in buffer which contains the fluorescent dye Fluo-4. After this loading with dye, the cells were washed, test substance was added and changes were measured in the intracellular Ca^2+ concentration in the FLIPR instrument. Results were presented as the percentage change relative to the control (0%: no test substance added; 100%: 10 μM reference agonist linoleic acid added) and used to calculate dose/effect curves, and EC50 values were determined.

T1 sequence (Q8K3T4 whole entry): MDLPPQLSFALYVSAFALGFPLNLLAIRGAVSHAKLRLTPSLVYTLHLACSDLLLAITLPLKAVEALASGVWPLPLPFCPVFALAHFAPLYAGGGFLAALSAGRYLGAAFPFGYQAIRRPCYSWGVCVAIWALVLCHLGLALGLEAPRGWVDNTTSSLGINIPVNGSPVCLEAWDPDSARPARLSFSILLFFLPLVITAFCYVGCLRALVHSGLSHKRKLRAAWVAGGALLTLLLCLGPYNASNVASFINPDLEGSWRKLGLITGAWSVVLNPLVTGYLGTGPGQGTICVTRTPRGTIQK

| EC50 | SMILES |
| --- | --- |
| 0.094 µM | CC#CC(CC(=O)O)c1ccc(NC(=O)C(C)Oc2cc(C)ccc2C(C)C)cc1 (stereo not drawn) [Example 4] |
| 0.176 µM | CC#CC(CC(=O)O)c1ccc(NC(=O)C(C)Oc2cc(C(C)C)ccc2C)cc1 (stereo not drawn) [Example 5] |
| 0.071 µM | CC#CC(CC(=O)O)c1ccc(NC(=O)C(C)Oc2cccc(C(C)C)c2)cc1 (stereo not drawn) [Example 6, 3-{4-[2-(3-Isopropylphenoxy)propionylamino]phenyl}hex-4-ynoic acid] |
| 1.14 µM | CC#CC(CC(=O)O)c1ccc(NC(=O)C(C)(C)Oc2ccc(C(C)C)cc2Br)cc1 (stereo not drawn) [Example 8] |
| 0.553 µM | CC#CC(CC(=O)O)c1ccc(NC(=O)C(Oc2ccc(C(C)C)cc2Br)C(C)C)cc1 (stereo not drawn) [Example 9] |
| 0.187 µM | CC#CC(CC(=O)O)c1ccc(NC(=O)C(C)(C)Oc2cccc(C(C)C)c2)cc1 (stereo not drawn) [Example 16] |
| 4.46 µM | CC#CC(CC(=O)O)c1ccc(NC(=O)C(C)(C)Oc2ccc(C(C)(C)C)cc2Br)cc1 (stereo not drawn) [Example 22] |
| 5.08 µM | COC(CC(=O)O)c1ccc(NC(=O)C(C)Oc2cc(C(C)C)ccc2C)cc1 (stereo not drawn) [Example 39] |
| 2.13 µM | COC(CC(=O)O)c1ccc(NC(=O)C(C)Oc2cc(C)ccc2C(C)C)cc1 (stereo not drawn) [Example 40, 3-{4-[2-(2-Isopropyl-5-methylphenoxy)propionylamino]phenyl}-3-methoxypropionic Acid] |
| 10.7 µM | COC(CC(=O)O)c1ccc(NC(=O)C(C)Oc2cccc(C(C)(C)C)c2)cc1 (stereo not drawn) [Example 42] |
| 20.8 µM | COC(CC(=O)O)c1ccc(NC(=O)C(C)(C)Oc2ccc(Cl)cc2Cl)cc1 (stereo not drawn) [Example 43] |
| 1.16 µM | COC(CC(=O)O)c1ccc(NC(=O)C(C)(C)Oc2cccc(C(C)C)c2)cc1 (stereo not drawn) [Example 47] |
